The values that follow come from patent US9073855B2, “BCL-2 selective apoptosis-inducing agents for the treatment of cancer and immune diseases” (AbbVie Inc., priority 2008, dated 2015).

pEC50, pKi: −log10 of the molar value.

In one assay the target is GST-Bcl-2 (Homo sapiens, UniProt P10415). Kind of assay: TR-FRET binding assay, GST-Bcl-2 with F-Bak peptide probe. Particulars: for pKi: TR-FRET Binding Affinity, GST-Bcl-2, F-Bak peptide probe; for Binding selectivity ratio (Bcl-XL Ki/Bcl-2 Ki): ratio of TR-FRET Ki values, Bcl-XL over Bcl-2. The method, boiled down: (§1)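 Compounds were serially diluted in DMSO from a 50 μM starting solution (2× the starting concentration; 10% DMSO). Plates were incubated for 3 h at room temperature, and TR-FRET was read with 340/35 nm excitation and emission at 520/525 nm (F-Bak) and 495/510 nm (Tb antibody). Ki values were calculated using Wang's competitive-binding equation.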
Chain of GST-Bcl-2 (P10415 whole entry): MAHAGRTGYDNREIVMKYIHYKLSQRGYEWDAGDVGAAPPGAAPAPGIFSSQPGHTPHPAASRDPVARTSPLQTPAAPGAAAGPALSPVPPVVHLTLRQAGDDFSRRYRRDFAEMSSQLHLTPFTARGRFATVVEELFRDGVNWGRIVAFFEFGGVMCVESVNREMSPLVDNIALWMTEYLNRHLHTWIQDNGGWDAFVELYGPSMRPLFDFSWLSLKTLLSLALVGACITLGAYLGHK

The target in another assay is GST-Bcl-XL (Homo sapiens, UniProt Q07817). As to the kind of experiment: TR-FRET binding assay, GST-Bcl-XL with F-Bak peptide probe. The conditions noted are these: TR-FRET Binding Affinity, GST-Bcl-XL, F-Bak peptide probe. The essentials:
as §1
(In general: In TR-FRET formats the signal depends on donor and acceptor labels being close together.)

In a further assay the test system is FL5.12/Bcl-2 cells. Kind of assay: FL5.12/Bcl-2 cell viability assay under IL-3 withdrawal (CellTitre Glo). The assay is classed as cell-based, murine. Particulars: Mus musculus, IL-3 withdrawn 48 hrs, then 24 hrs with compound. The essentials: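 Cells (1×10^6/ml) are washed, resuspended in medium lacking WEHI-3B conditioned medium as IL-3 source, and held 48 hrs. Compounds are then added at a range of concentrations for 24 hrs, after which CellTitre Glo reports viability.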

Chain of GST-Bcl-XL (Q07817 whole entry): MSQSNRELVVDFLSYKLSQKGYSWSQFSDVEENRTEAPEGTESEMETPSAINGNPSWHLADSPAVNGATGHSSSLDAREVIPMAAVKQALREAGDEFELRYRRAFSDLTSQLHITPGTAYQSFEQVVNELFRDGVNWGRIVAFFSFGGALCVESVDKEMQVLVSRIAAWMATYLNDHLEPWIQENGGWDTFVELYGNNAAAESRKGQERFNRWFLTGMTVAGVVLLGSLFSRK

For `CC1(C)CCC(CN2CCN(c3ccc(C(=O)NS(=O)(=O)c4ccc(OCC#CCN5CCOCC5)c([N+](=O)[O-])c4)c(Oc4ccc5[nH]ccc5c4)c3)CC2)=C(c2ccc(Cl)cc2)C1` [Example 390, 4-(4-{[2-(4-chlorophenyl)-4,4-dimethylcyclohex-1-en-1-yl]methyl}piperazin-1-yl)-2-(1H-indol-5-yloxy)-N-({4-[(4-morpholin-4-ylbut-2-ynyl)oxy]-3-nitrophenyl}sulfonyl)benzamide], the figures for the pKi on GST-Bcl-2 and at GST-Bcl-XL were 9.47 and 6.94, respectively. The negative-log EC50 (pEC50) (usually −log10 of the EC50, conventionally taken in molar units) with FL5.12/Bcl-2 cells was 7.39.
For the compound `C#Cc1cc(S(=O)(=O)NC(=O)c2ccc(N3CCN(CC4=C(c5ccc(Cl)cc5)CC(C)(C)CC4)CC3)cc2Oc2cccc3[nH]ccc23)cnc1OCC1CCOCC1` [Example 391, 4-(4-{[2-(4-chlorophenyl)-4,4-dimethylcyclohex-1-en-1-yl]methyl}piperazin-1-yl)-N-{[5-ethynyl-6-(tetrahydro-2H-pyran-4-ylmethoxy)pyridin-3-yl]sulfonyl}-2-(1H-indol-4-yloxy)benzamide], the pKi – broadly, the Ki on a negative log10 scale, so that one unit is a factor of ten – on GST-Bcl-2 is 8.45; at GST-Bcl-XL, below 6.18. Besides, in the assay with FL5.12/Bcl-2 cells, the pEC50 was below 6.30.
For the compound `CN1CCC(Nc2ccc(S(=O)(=O)NC(=O)c3ccc(N4CCN(CC5=C(c6ccc(Cl)cc6)CC(C)(C)CC5)CC4)cc3Nc3cccnc3)cc2[N+](=O)[O-])CC1` [Example 396, 4-(4-{[2-(4-chlorophenyl)-4,4-dimethylcyclohex-1-en-1-yl]methyl}piperazin-1-yl)-N-({4-[(1-methylpiperidin-4-yl)amino]-3-nitrophenyl}sulfonyl)-2-(pyridin-3-ylamino)benzamide], on GST-Bcl-2, the pKi was 6.94 and the “Binding selectivity ratio (Bcl-XL Ki/Bcl-2 Ki)” value (“Binding selectivity ratio” for short) is reported as above 5705.9. For the same compound, the pKi at GST-Bcl-XL was below 3.18. The negative logarithm of the EC50 (pEC50) in the assay with FL5.12/Bcl-2 cells was below 6.30.
On to `CC1(C)CCC(CN2CCN(c3ccc(C(=O)NS(=O)(=O)c4ccc(NC5CCN(C6CCOCC6)CC5)c([N+](=O)[O-])c4)c(Oc4cccnc4)c3)CC2)=C(c2ccc(Cl)cc2)C1` [Example 398, 4-(4-{[2-(4-chlorophenyl)-4,4-dimethylcyclohex-1-en-1-yl]methyl}piperazin-1-yl)-N-({3-nitro-4-[(1-tetrahydro-2H-pyran-4-ylpiperidin-4-yl)amino]phenyl}sulfonyl)-2-(pyridin-3-yloxy)benzamide], for which, on GST-Bcl-2, the pKi was 8.91 and the “Binding selectivity ratio” value is on record as 67.7. The compound also had a pKi on GST-Bcl-XL of 7.08. In addition, the negative-log EC50 (pEC50) in the assay with FL5.12/Bcl-2 cells was 6.48.
Consider `CC1(C)CCC(CN2CCN(c3ccc(C(=O)NS(=O)(=O)c4ccc(NCC5CCOCC5)c([N+](=O)[O-])c4)c(Oc4cccc5c4CCNC5)c3)CC2)=C(c2ccc(Cl)cc2)C1` [Example 399, 4-(4-{[2-(4-chlorophenyl)-4,4-dimethylcyclohex-1-en-1-yl]methyl}piperazin-1-yl)-N-({3-nitro-4-[(tetrahydro-2H-pyran-4-ylmethyl)amino]phenyl}sulfonyl)-2-(1,2,3,4-tetrahydroisoquinolin-5-yloxy)benzamide], for which, at GST-Bcl-2, the negative logarithm of the Ki (pKi) was 8.53 and the “Binding selectivity ratio” value was above 225764.5. Besides, the negative-log Ki (pKi) on GST-Bcl-XL was below 3.18. Moreover, the pEC50 with FL5.12/Bcl-2 cells was below 6.30.
Turning to `CC1(C)CCC(CN2CCN(c3ccc(C(=O)NS(=O)(=O)c4ccc(NCC5CCOCC5)c([N+](=O)[O-])c4)c(Oc4cccc5[nH]ncc45)c3)CC2)=C(c2ccc(Cl)cc2)C1` [Example 400, 4-(4-{[2-(4-chlorophenyl)-4,4-dimethylcyclohex-1-en-1-yl]methyl}piperazin-1-yl)-2-(1H-indazol-4-yloxy)-N-({3-nitro-4-[(tetrahydro-2H-pyran-4-ylmethyl)amino]phenyl}sulfonyl)benzamide], the negative logarithm of the Ki (pKi) at GST-Bcl-2 is above 11.00; on GST-Bcl-XL, 7.44. The pEC50 with FL5.12/Bcl-2 cells is 8.07.
As to `CC1(C)CCC(CN2CCN(c3ccc(C(=O)NS(=O)(=O)c4ccc(NC5CCN(C6CCOCC6)CC5)c([N+](=O)[O-])c4)c(Oc4cccc5[nH]ncc45)c3)CC2)=C(c2ccc(Cl)cc2)C1` [Example 401, 4-(4-{[2-(4-chlorophenyl)-4,4-dimethylcyclohex-1-en-1-yl]methyl}piperazin-1-yl)-2-(1H-indazol-4-yloxy)-N-({3-nitro-4-[(1-tetrahydro-2H-pyran-4-ylpiperidin-4-yl)amino]phenyl}sulfonyl)benzamide], at GST-Bcl-2, the pKi is above 11.00 and the “Binding selectivity ratio” value is reported as above 162.1. The same compound gave a pKi on GST-Bcl-XL of 8.79. For the same compound, the negative-log EC50 (pEC50) in the assay with FL5.12/Bcl-2 cells is 8.27.
As for `CC1(C)CCC(CN2CCN(c3ccc(C(=O)NS(=O)(=O)c4ccc(N[C@H]5CC[C@H](N6CCOCC6)CC5)c([N+](=O)[O-])c4)c(Oc4cccc5[nH]ncc45)c3)CC2)=C(c2ccc(Cl)cc2)C1` [Example 402, Trans-4-(4-{[2-(4-chlorophenyl)-4,4-dimethylcyclohex-1-en-1-yl]methyl}piperazin-1-yl)-2-(1H-indazol-4-yloxy)-N-({4-[(4-morpholin-4-ylcyclohexyl)amino]-3-nitrophenyl}sulfonyl)benzamide], the values for the pKi at GST-Bcl-2 and at GST-Bcl-XL were 10.52 and 8.38, respectively. For the same compound, on GST-Bcl-2, the “Binding selectivity ratio” value is on record as 137.4. For the same compound, the negative-log EC50 (pEC50) in the assay with FL5.12/Bcl-2 cells was 7.87.
Take `CC1(C)CCC(CN2CCN(c3ccc(C(=O)NS(=O)(=O)c4ccc(NCC5CCOCC5)c([N+](=O)[O-])c4)c(Oc4cccc5[nH]cnc45)c3)CC2)=C(c2ccc(Cl)cc2)C1` [Example 403, 2-(1H-benzimidazol-4-yloxy)-4-(4-{[2-(4-chlorophenyl)-4,4-dimethylcyclohex-1-en-1-yl]methyl}piperazin-1-yl)-N-({3-nitro-4-[(tetrahydro-2H-pyran-4-ylmethyl)amino]phenyl}sulfonyl)benzamide]: the pKi is 11.52 on GST-Bcl-2 and 7.61 at GST-Bcl-XL. Besides, the negative-log EC50 (pEC50) in the assay on FL5.12/Bcl-2 cells is 8.53.
`CC1(C)CCC(CN2CCN(c3ccc(C(=O)NS(=O)(=O)c4cnc(OCC5(F)CCOCC5)c(Cl)c4)c(Oc4cccc5[nH]ncc45)c3)CC2)=C(c2ccc(Cl)cc2)C1` [Example 404, N-({5-chloro-6-[(4-fluorotetrahydro-2H-pyran-4-yl)methoxy]pyridin-3-yl}sulfonyl)-4-(4-{[2-(4-chlorophenyl)-4,4-dimethylcyclohex-1-en-1-yl]methyl}piperazin-1-yl)-2-(1H-indazol-4-yloxy)benzamide]: the figures for the pKi on GST-Bcl-2 and at GST-Bcl-XL were 10.92 and 7.52, respectively. In addition, the “Binding selectivity ratio” value on GST-Bcl-2 is on record as 2423.5. The pEC50 in the assay on FL5.12/Bcl-2 cells was 8.63.
As for `CC1(C)CCC(CN2CCN(c3ccc(C(=O)NS(=O)(=O)c4cnc(OCC5(F)CCOCC5)c(Cl)c4)c(Oc4cccc5[nH]ccc45)c3)CC2)=C(c2ccc(Cl)cc2)C1` [Example 405, N-({5-chloro-6-[(4-fluorotetrahydro-2H-pyran-4-yl)methoxy]pyridin-3-yl}sulfonyl)-4-(4-{[2-(4-chlorophenyl)-4,4-dimethylcyclohex-1-en-1-yl]methyl}piperazin-1-yl)-2-(1H-indol-4-yloxy)benzamide], on GST-Bcl-2, the pKi was 10.40 and the “Binding selectivity ratio” value stood at 1394.8. This compound showed a pKi on GST-Bcl-XL of 7.26. Also, the negative-log EC50 (pEC50) with FL5.12/Bcl-2 cells is 7.93.
With `CC1(C)CCC(CN2CCN(c3ccc(C(=O)NS(=O)(=O)c4cnc(OCC5(F)CCOCC5)c(C#N)c4)c(Oc4cccc5[nH]ncc45)c3)CC2)=C(c2ccc(Cl)cc2)C1` [Example 406, 4-(4-{[2-(4-chlorophenyl)-4,4-dimethylcyclohex-1-en-1-yl]methyl}piperazin-1-yl)-N-({5-cyano-6-[(4-fluorotetrahydro-2H-pyran-4-yl)methoxy]pyridin-3-yl}sulfonyl)-2-(1H-indazol-4-yloxy)benzamide], the pKi on GST-Bcl-2 was 10.46; on GST-Bcl-XL, 7.35. Also, the pEC50 in the assay on FL5.12/Bcl-2 cells was 7.69.
With `CC1(C)CCC(CN2CCN(c3ccc(C(=O)NS(=O)(=O)c4ccc(N[C@@H]5CCN(CC(F)F)C5)c([N+](=O)[O-])c4)c(Oc4cccc5[nH]cnc45)c3)CC2)=C(c2ccc(Cl)cc2)C1` [Example 407, 2-(1H-benzimidazol-4-yloxy)-4-(4-{[2-(4-chlorophenyl)-4,4-dimethylcyclohex-1-en-1-yl]methyl}piperazin-1-yl)-N-[(4-{[(3R)-1-(2,2-difluoroethyl)pyrrolidin-3-yl]amino}-3-nitrophenyl)sulfonyl]benzamide], the negative logarithm of the Ki (pKi) on GST-Bcl-2 was 10.82; at GST-Bcl-XL, 7.13. At GST-Bcl-2, the “Binding selectivity ratio” value is 4930.6. In the assay on FL5.12/Bcl-2 cells, the pEC50 was 8.09.
On to `CC1(C)CCC(CN2CCN(c3ccc(C(=O)NS(=O)(=O)c4ccc(OCC5(F)CCOCC5)c([N+](=O)[O-])c4)c(Oc4cccc5[nH]cnc45)c3)CC2)=C(c2ccc(Cl)cc2)C1` [Example 408, 2-(1H-benzimidazol-4-yloxy)-4-(4-{[2-(4-chlorophenyl)-4,4-dimethylcyclohex-1-en-1-yl]methyl}piperazin-1-yl)-N-({4-[(4-fluorotetrahydro-2H-pyran-4-yl)methoxy]-3-nitrophenyl}sulfonyl)benzamide], for which the pKi is 11.70 at GST-Bcl-2 and 7.55 on GST-Bcl-XL. Moreover, in the assay on FL5.12/Bcl-2 cells, the pEC50 is 8.62.
The matching figures for `CC1(C)CCC(CN2CCN(c3ccc(C(=O)NS(=O)(=O)c4ccc(NCC5(F)CCOCC5)c([N+](=O)[O-])c4)c(Oc4cccc5[nH]ncc45)c3)CC2)=C(c2ccc(Cl)cc2)C1` [Example 409, 4-(4-{[2-(4-chlorophenyl)-4,4-dimethylcyclohex-1-en-1-yl]methyl}piperazin-1-yl)-N-[(4-{[(4-fluorotetrahydro-2H-pyran-4-yl)methyl]amino}-3-nitrophenyl)sulfonyl]-2-(1H-indazol-4-yloxy)benzamide]: above 11.00, 7.76 and 8.92.
